US12466834B2, “Imidazodiazepinediones and methods of use thereof” (GFB (ABC), LLC, priority 2018, dated 2025)

How the values were obtained:
human TRPC5 [1] = target: T1, human TRPC5 (Homo sapiens, UniProt Q9UL62); experiment: FLIPR calcium assay, inhibition of riluzole-activated TRPC5 calcium response; format: cell-based; settings: ICLN-1633 cells; riluzole 30 μM stimulation; Fluo-4 calcium response; read-out: Inhibitor Potency Range (FLIPR)
T1 construct: expressed in transfected cells
T1 sequence (Q9UL62 1-973): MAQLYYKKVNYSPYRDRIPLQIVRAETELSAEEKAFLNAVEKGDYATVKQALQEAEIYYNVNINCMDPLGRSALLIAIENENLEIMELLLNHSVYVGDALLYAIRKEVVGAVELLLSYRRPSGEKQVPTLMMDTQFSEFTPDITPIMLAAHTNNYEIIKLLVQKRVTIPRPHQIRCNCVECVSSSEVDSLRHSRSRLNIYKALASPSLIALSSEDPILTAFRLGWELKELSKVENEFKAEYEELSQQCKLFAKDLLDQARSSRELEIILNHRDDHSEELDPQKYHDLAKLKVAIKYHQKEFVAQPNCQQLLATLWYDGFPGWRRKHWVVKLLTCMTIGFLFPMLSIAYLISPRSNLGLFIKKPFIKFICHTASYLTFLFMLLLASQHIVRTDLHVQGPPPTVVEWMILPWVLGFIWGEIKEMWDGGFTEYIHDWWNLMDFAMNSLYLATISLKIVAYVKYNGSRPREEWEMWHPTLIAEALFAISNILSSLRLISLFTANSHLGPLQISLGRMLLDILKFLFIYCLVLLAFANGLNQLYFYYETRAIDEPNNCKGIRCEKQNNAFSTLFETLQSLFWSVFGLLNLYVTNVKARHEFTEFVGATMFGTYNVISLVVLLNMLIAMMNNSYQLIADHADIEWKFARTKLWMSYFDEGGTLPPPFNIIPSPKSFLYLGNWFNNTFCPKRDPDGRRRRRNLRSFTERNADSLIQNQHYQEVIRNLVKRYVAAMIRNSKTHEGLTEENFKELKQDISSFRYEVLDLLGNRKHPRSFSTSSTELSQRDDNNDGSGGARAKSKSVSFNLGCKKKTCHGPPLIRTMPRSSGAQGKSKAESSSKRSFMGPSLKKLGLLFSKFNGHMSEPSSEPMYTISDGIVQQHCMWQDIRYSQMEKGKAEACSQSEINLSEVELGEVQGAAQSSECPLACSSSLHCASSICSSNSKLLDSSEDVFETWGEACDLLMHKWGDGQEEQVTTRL
Protocol: (§1) ICLN-1633 cells (HEK-TREx hTRPC5) expressing TRPC5 were generated as follows. Commercially available HekTrex-293 cells were seeded at 0.7×10^6 cells/well in a 1×6-well plate 24 hrs prior to transfection using 2 mL cell growth media containing no antibiotics (1× DMEM/high glucose (Hyclone #SH30022.02); 10% fetal bovine serum (Sigma) 2 mM sodium pyruvate, 10 mM HEPES). The human TRPC5 coding sequence (NM_012471 with a silent T478C mutation) was cloned into pcDNA5/TO (Invitrogen; Cat No. V103320) using hygromycin as the resistance gene and the plasmid (SEQ ID NO:1) propagated using T-Rex-293 cells (Invitrogen; Cat No. R71007) following manufacturer's directions. On day 2, 2 μg of plasmid DNA plus 6 μl of Xtreme-GENE HP reagent in Optimem (200 μl total volume) was prepared and incubated for 15 min at room temperature. This plasmid solution was then gently overlayed dropwise onto each well and the plate was gently swirled to mix complex with the media for approximately 30 seconds. Transfected cells were incubated at 37° C. in a 10% CO2 incubator for 24 hrs. The transfected cells were harvested and transferred into 2×150 mm dishes containing cell growth media with no antibiotics at 37° C.
Compounds were made up to, or supplied as a 10 mM stock solution generally using DMSO as the vehicle. 10-point dose response curves were generated using the Echo-550 acoustic dispenser. Compound source plates were made by serially diluting compound stocks to create 10 mM, 1 mM, and 0.1 mM solutions in DMSO into Echo certified LDV plates. The Echo then serially spotted 100% DMSO stock solutions into source dose response plates to generate a 4-fold dilution scheme. 100% DMSO was added to the spotted dose response plates to bring the final volume to 5 μl. 300 nl of the dose response stock plate was then spotted into pre-incubation and stimulation assay plates. 50 μl of pre-incubation buffer and 100 μl of stimulation buffer was then added to the plates resulting in a final assay test concentration range of 30 μM to 0.0001 μM with a final DMSO concentration of 0.3%.
Human ICLN-1633 cells expressing were plated onto 384 well, black poly-D-lysine-coated microplates and maintained in TRPC5 growth media the day prior to use for experiments. TRPC5 expression was induced by the application of 1 μg/mL tetracycline at the time of plating. Media was removed from the plates and 10 μl of 4 μM of Fluo-4 AM (mixed with equal volume of Pluronic F-127) in Earls's Balanced Salt Solution (EBSS) was added to the cells. Cells were incubated at room temperature, protected from light, for 60-90 minutes. After the incubation period, the dye was removed and replaced with 10 μl of EBSS. Cell, pre-incubation and stimulation plates were loaded onto the FLIPR-II and the assay was initiated. The FLIPR measured a 10 second baseline and then added 10 μl of 2× compounds (or controls). Changes in fluorescence were monitored for an additional 5 minutes. After the 5 minute pre-incubation, 20 μl of 2× riluzole (with 1× compound or controls) was added to the cell plate. The final riluzole stimulation concentration in the assay was 30 μM. After the riluzole addition, changes in fluorescence were monitored for an additional 5 minutes. Reduction in the riluzole-activated calcium response relative to control wells was reported as inhibition. A compound-mediated increase in the riluzole response relative to control riluzole response (no test agent present) with no enhancement of calcium entry during preincubation phase was reported as an agonist response.
Compound inhibition of TRPC5 calcium response was determined as follows. After the riluzole addition, fluorescence was monitored for a 5-minute period. For inhibition, the maximum relative fluorescence response (minus the control response of 1 μM of an internal control compound known to maximally block TRPC5 calcium response, the “REF INHIB” in the formula below) was captured and exported from the FLIPR. […]

human TRPC5 [2] = target: T1, human TRPC5; experiment: Automated patch clamp assay (QPatch), antagonist mode; format: cell-based; settings: HEK-TREx hTRPC5 cells; channel activated with Rosiglitazone 30 μM; normalised to ML-204 block; read-out: Qpatch Potency Range
Protocol: as §1
The next day selection was initiated to generate a stable pool by adding cell growth media containing 150 μg/mL Hygromycin and 5 μg/mL Blasticidin and cells were allowed to grow. Media with the selection agent was changed every 1-2 days as needed to remove dead cells. After 7 days, the hygromycin concentration was reduced to 75 μg/mL and cells growth was allowed to continue.
Single clones were selected as follows. The stable pool was diluted to 10 cells/mL and seeded (100 μl/well) into 24×96 well plates (˜1 cell/well) and allowed to grow for 7 days in cell growth media. Fresh media (100 μl) was added and the cells allowed to grow for another 1-2 weeks and then stored frozen or used immediately.
The automated electrophysiological assay was carried out at room temperature. On the day of the experiment, TRPC5 cells were cultured according to our Standard Operating Procedure. Briefly, cells were harvested using TrypLE™ Express, re-suspended in serum free medium, added to the automated platform and used within 0.5-3 hours. Internal and external physiological solutions were freshly prepared prior to the assay. The external solution contained: 145 mM NaCl, 4 mM KCl, 2 mM CaCl2, 1 mM MgCl2, 10 mM HEPES, 10 mM glucose, pH 7.4 with NaOH and 310 mOsm/L. The internal solution contained 120 mM L-aspartic acid, 120 mM CsOH·H2O, 20 mM CsCl, 2 mM MgCl2, 8.8 mM CaCl2, 10 mM EGTA, 10 mM HEPES and 2 mM Na2ATP; pH 7.2 with CsOH and 330 mOsm/L. The free internal Ca^2+ concentration was buffered to 1 μM, according to the WCabuf software. The automated electrophysiological platform QPatch 16 from Sophion (Denmark) was used to carry out the compounds profiling. The series resistance and quality of seals were continuously monitored during the experiments. Data were analyzed using Sophion QPatch assay software 5.6 (Odense). Data were normalized using the maximum activation obtained during the pre-compound agonist application as the top value (1.0) and maximum inhibition induced by ML-204 as the bottom value (0.0). IC50 values were calculated using a least squares regression algorithm (Hill equation).
To monitor the ion currents, a voltage ramp from −100 mV to +100 mV, over 300 ms, was applied every 10 seconds, from a holding potential of −60 mV. Antagonist-mode: After recording for a minimum of 60 seconds control period, the EC60 concentration of the TRPC5 agonist, Rosiglitazone (30 μM), was applied to activate the channel. After reaching steady-state, co-application of increasing concentrations of test compound were applied followed by two applications of Rosiglitazone EC60 and a saturating concentration of the specific blocker ML-204 (100 μM).

Compound `CCCCn1c(Oc2cccc(OC(F)(F)F)c2)nc2c1C(=O)N(CCCO)CC(=O)N2C` [Compound 3] has an IC50 (human TRPC5 [1]) of 1000 to 10000 nM.

With `CN1C(=O)[C@@H](CCO)N(C)C(=O)c2c1nc(Oc1cccc(OC(F)(F)F)c1)n2Cc1ccc(Cl)cc1` (single isomer, unassigned) [Compound 18] the IC50 (human TRPC5 [2]) was 1 to 1000 nM and the IC50 (human TRPC5 [1]) was > 10000 nM.

Compound `CCCCn1c(Oc2cccc(Cl)c2)nc2c1C(=O)N(CCCO)C(=O)[C@@H]1CCCN21` [Compound 32] has an IC50 (human TRPC5 [1]) of 1 to 1000 nM.

With `CN1C(=O)CN(CC(F)(F)CO)C(=O)c2c1nc(Oc1cccc(OC(F)(F)F)c1)n2Cc1ccc(Cl)cc1` [Compound 11] the IC50 (human TRPC5 [2]) was > 30000 nM and the IC50 (human TRPC5 [1]) was 1000 to 10000 nM.

`CN1C(=O)CN(CCCO)C(=O)c2c1nc(Oc1cccc(F)c1)n2Cc1ccc(Cl)cc1` [Compound 4] was tested, and the IC50 (human TRPC5 [1]) was 1000 to 10000 nM.

`C[C@H](c1ccc(Cl)cc1)n1c(Oc2cccc(F)c2)nc2c1C(=O)N(CCCO)CC(=O)N2C` (single isomer, unassigned) [Compound 6] was tested, and the IC50 (human TRPC5 [2]) was > 30000 nM and the IC50 (human TRPC5 [1]) was > 10000 nM.

`CN1CCN(CCCO)C(=O)c2c1nc(Oc1cccc(OC(F)(F)F)c1)n2Cc1ccc(Cl)cc1` [Compound 1, 1-[(4-chlorophenyl)methyl]-7-(3-hydroxypropyl)-4-methyl-2-[3-(trifluoromethoxy)phenoxy]-1H,4H,5H,6H,7H,8H-imidazo[4,5-e][1,4]diazepin-8-one] gave an IC50 (human TRPC5 [2]) of 1000 to 30000 nM.

Work on `CN1C(=O)CN([C@H]2C[C@H](O)C2)C(=O)c2c1nc(Oc1cccc(OC(F)(F)F)c1)n2Cc1ccc(Cl)cc1` [Compound 13] yielded an IC50 (human TRPC5 [2]) of 1000 to 30000 nM.

With `COCCCN1CC(=O)N(C)c2nc(Oc3cccc(OC(F)(F)F)c3)n(Cc3ccc(Cl)cc3)c2C1=O` [Compound 8, 1-[(4-chlorophenyl)methyl]-7-(3-methoxypropyl)-4-methyl-2-[3-(trifluoromethoxy)phenoxy]-1H,4H,5H,6H,7H,8H-imidazo[4,5-e][1,4]diazepine-5,8-dione] the IC50 (human TRPC5 [1]) was 1000 to 10000 nM.

`O=C1c2c(nc(Oc3cccc(Cl)c3)n2Cc2ccc(Cl)cc2)N2CCC[C@H]2C(=O)N1CCCO` [Compound 33] showed an IC50 (human TRPC5 [1]) of 1 to 1000 nM.

Compound `O=C1c2c(nc(Oc3cccc(OC(F)(F)F)c3)n2Cc2ccc(Cl)cc2)N2CCC[C@@H]2CN1CCCO` (single isomer, unassigned) [Compound 34] has an IC50 (human TRPC5 [1]) of 1 to 1000 nM.

Work on `CN1C(=O)CN(CCO)C(=O)c2c1nc(Oc1cccc(OC(F)(F)F)c1)n2Cc1ccc(Cl)cc1` [Compound 10, 1-[(4-chlorophenyl)methyl]-7-(2-hydroxyethyl)-4-methyl-2-[3-(trifluoromethoxy)phenoxy]-1H,4H,5H,6H,7H,8H-imidazo[4,5-e][1,4]diazepine-5,8-dione] yielded an IC50 (human TRPC5 [1]) of 1000 to 10000 nM.

Compound `CN1C(=O)CN([C@@H]2CC[C@@H](O)C2)C(=O)c2c1nc(Oc1cccc(OC(F)(F)F)c1)n2Cc1ccc(Cl)cc1` (single isomer, unassigned) [Compound 15] has an IC50 (human TRPC5 [1]) of 1 to 1000 nM.

In the case of `C[C@H]1C(=O)N(C)c2nc(Oc3cccc(F)c3)n(Cc3ccc(Cl)cc3)c2C(=O)N1CCCO` (single isomer, unassigned) [Compound 20], the IC50 (human TRPC5 [2]) is reported as 1000 to 30000 nM and the IC50 (human TRPC5 [1]) is reported as 1 to 1000 nM.

For `O=C1c2c(nc(Oc3cccc(F)c3)n2Cc2ccc(Cl)cc2)N2CCC[C@H]2C(=O)N1CCCO` [Compound 26], the IC50 (human TRPC5 [1]) was 1 to 1000 nM.

In the case of `CN1C(=O)CN(CC(O)CO)C(=O)c2c1nc(Oc1cccc(OC(F)(F)F)c1)n2Cc1ccc(Cl)cc1` (stereo not shown) [Compound 9, 1-[(4-chlorophenyl)methyl]-7-(2,3-dihydroxypropyl)-4-methyl-2-[3-(trifluoromethoxy)phenoxy]-1H,4H,5H,6H,7H,8H-imidazo[4,5-e][1,4]diazepine-5,8-dione], the IC50 (human TRPC5 [2]) is reported as 1000 to 30000 nM.

For `CCCCn1c(Oc2cccc(F)c2)nc2c1C(=O)N(CCCO)C(=O)[C@@H]1CCCN21` (single isomer, unassigned) [Compound 24], the IC50 (human TRPC5 [2]) was 1 to 1000 nM and the IC50 (human TRPC5 [1]) was 1 to 1000 nM.

`CN1C(=O)[C@H](CCO)N(C)C(=O)c2c1nc(Oc1cccc(OC(F)(F)F)c1)n2Cc1ccc(Cl)cc1` (single isomer, unassigned) [Compound 17] was tested, and the IC50 (human TRPC5 [2]) was > 30000 nM.

In the case of `O=C1c2c(nc(Oc3cccc(OC(F)(F)F)c3)n2Cc2ccc(Cl)cc2)N2CCC[C@H]2CN1CCCO` (single isomer, unassigned) [Compound 35], the IC50 (human TRPC5 [1]) is reported as 1000 to 10000 nM.

For `CN1C(=O)CN([C@H]2CC[C@H](O)C2)C(=O)c2c1nc(Oc1cccc(OC(F)(F)F)c1)n2Cc1ccc(Cl)cc1` (single isomer, unassigned) [Compound 16], the IC50 (human TRPC5 [1]) was 1000 to 10000 nM.
